Test results published in ChEMBL document CHEMBL4507295 (2021).

Experiments:
[1] = target: Tyrosine-protein kinase Srms (Homo sapiens) (UniProt Q9H3Y6); settings: Compound concentration 1000.0 nM
[2] = target: Cyclin-dependent kinase 7 (Homo sapiens) (UniProt P50613); settings: Compound concentration 1000.0 nM
[3] = target: SRSF protein kinase 1 (Homo sapiens) (UniProt Q96SB4); settings: Compound concentration 1000.0 nM
[4] = target: Protein kinase C delta type (Homo sapiens) (UniProt Q05655); settings: Compound concentration 1000.0 nM
[5] = target: Serine/threonine-protein kinase tousled-like 1 (Homo sapiens) (UniProt Q9UKI8); settings: Compound concentration 1000.0 nM
[6] = target: Cyclin-dependent kinase 19 (Homo sapiens) (UniProt Q9BWU1); settings: Compound concentration 1000.0 nM
[7] = target: Serine/threonine-protein kinase 33 (Homo sapiens) (UniProt Q9BYT3); settings: Compound concentration 1000.0 nM
[8] = target: Uncharacterized serine/threonine-protein kinase SBK3 (Homo sapiens) (UniProt P0C264); settings: Compound concentration 1000.0 nM
[9] = target: Alpha-1B adrenergic receptor (Homo sapiens) (UniProt P35368); settings: Compound concentration 10.0 uM
[10] = target: Cyclin-dependent kinase 4 (Homo sapiens) (UniProt P11802); settings: Compound concentration 1000.0 nM
[11] = target: Hepatocyte growth factor receptor (Homo sapiens) (UniProt P08581); settings: Compound concentration 1000.0 nM
[12] = target: Fibroblast growth factor receptor 4 (Homo sapiens) (UniProt P22455); settings: Compound concentration 1000.0 nM
[13] = target: Interferon-induced, double-stranded RNA-activated protein kinase (Homo sapiens) (UniProt P19525); settings: Compound concentration 1000.0 nM
Chain of Interferon-induced, double-stranded RNA-activated protein kinase (Homo sapiens) (P19525 whole entry): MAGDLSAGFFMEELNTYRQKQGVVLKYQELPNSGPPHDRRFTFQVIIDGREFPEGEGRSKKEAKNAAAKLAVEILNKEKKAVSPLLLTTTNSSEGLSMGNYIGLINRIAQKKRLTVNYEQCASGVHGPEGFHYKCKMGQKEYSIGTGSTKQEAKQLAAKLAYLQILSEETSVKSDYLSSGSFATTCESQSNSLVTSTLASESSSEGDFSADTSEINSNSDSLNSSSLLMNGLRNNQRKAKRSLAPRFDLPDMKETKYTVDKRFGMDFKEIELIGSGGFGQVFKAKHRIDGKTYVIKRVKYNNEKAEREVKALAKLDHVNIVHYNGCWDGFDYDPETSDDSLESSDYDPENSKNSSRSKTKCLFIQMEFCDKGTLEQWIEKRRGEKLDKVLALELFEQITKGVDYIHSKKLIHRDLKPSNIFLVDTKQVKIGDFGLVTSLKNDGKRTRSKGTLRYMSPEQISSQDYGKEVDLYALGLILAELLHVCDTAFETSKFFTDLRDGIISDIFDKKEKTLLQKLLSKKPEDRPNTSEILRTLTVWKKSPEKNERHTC

[14] = target: Serine/threonine-protein kinase 3 (Homo sapiens) (UniProt Q13188); settings: Compound concentration 1000.0 nM
[15] = target: Receptor-interacting serine/threonine-protein kinase 4 (Homo sapiens) (UniProt P57078); settings: Compound concentration 1000.0 nM
[16] = tested on: Epidermal growth factor receptor (Homo sapiens), P00533 [T790M]; settings: Compound concentration 1000.0 nM
[17] = target: Serine/threonine-protein kinase/endoribonuclease IRE1 (Homo sapiens) (UniProt O75460); settings: Compound concentration 1000.0 nM
[18] = target: Interleukin-1 receptor-associated kinase 4 (Homo sapiens) (UniProt Q9NWZ3); settings: Compound concentration 1000.0 nM
[19] = target: Serine/threonine-protein kinase Chk2 (Homo sapiens) (UniProt O96017); settings: Compound concentration 1000.0 nM
[20] = target: Inhibitor of nuclear factor kappa-B kinase subunit alpha (Homo sapiens) (UniProt O15111); settings: Compound concentration 1000.0 nM
Chain of Inhibitor of nuclear factor kappa-B kinase subunit alpha (Homo sapiens) (O15111 whole entry): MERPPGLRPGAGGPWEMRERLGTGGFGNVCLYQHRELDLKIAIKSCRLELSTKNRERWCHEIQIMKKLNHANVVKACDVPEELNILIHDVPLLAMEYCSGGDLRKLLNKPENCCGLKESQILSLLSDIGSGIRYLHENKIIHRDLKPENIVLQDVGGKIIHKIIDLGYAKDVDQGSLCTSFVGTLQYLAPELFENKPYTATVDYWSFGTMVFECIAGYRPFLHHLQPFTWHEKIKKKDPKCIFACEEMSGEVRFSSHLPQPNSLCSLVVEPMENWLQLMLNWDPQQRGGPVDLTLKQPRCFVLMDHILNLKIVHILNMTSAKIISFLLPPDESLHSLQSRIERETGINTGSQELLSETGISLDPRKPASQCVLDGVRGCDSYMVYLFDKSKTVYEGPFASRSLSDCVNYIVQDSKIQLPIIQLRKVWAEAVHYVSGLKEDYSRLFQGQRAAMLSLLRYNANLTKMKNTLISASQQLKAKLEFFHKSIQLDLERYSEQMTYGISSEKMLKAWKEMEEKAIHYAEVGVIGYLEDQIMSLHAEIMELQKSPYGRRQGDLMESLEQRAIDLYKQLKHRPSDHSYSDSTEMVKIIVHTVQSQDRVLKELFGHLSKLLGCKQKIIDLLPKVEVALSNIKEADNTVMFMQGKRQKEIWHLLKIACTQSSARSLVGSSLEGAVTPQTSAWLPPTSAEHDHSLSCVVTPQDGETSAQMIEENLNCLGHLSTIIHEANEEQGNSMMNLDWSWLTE

[21] = target: cGMP-dependent protein kinase 2 (Homo sapiens) (UniProt Q13237); settings: Compound concentration 1000.0 nM
[22] = target: Megakaryocyte-associated tyrosine-protein kinase (Homo sapiens) (UniProt P42679); settings: Compound concentration 1000.0 nM
[23] = target: Mitogen-activated protein kinase kinase kinase 9 (Homo sapiens) (UniProt P80192); settings: Compound concentration 1000.0 nM
[24] = target: Mitogen-activated protein kinase kinase kinase 4 (Homo sapiens) (UniProt Q9Y6R4); settings: Compound concentration 1000.0 nM
[25] = target: Mitogen-activated protein kinase 6 (Homo sapiens) (UniProt Q16659); settings: Compound concentration 1000.0 nM
Chain of Mitogen-activated protein kinase 6 (Homo sapiens) (Q16659 whole entry, canonical isoform): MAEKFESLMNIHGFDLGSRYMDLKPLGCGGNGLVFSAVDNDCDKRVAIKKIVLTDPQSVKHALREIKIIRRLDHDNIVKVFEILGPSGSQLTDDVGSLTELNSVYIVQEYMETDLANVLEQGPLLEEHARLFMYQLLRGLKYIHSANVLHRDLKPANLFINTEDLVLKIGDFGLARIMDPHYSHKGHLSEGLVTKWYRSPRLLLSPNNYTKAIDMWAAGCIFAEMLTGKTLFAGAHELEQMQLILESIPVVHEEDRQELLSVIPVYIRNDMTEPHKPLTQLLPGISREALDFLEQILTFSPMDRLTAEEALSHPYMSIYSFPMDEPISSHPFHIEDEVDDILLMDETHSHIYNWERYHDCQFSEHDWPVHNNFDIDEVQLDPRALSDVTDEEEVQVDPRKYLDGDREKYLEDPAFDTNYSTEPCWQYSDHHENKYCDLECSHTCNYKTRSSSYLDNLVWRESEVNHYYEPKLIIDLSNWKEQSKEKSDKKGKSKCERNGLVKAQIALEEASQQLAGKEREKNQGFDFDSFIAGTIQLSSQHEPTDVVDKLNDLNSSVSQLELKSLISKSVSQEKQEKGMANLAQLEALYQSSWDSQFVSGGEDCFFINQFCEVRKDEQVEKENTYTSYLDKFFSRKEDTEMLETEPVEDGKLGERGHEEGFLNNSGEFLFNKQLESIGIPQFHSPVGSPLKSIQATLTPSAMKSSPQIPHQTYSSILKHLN

[26] = tested on: Phosphatidylinositol 4,5-bisphosphate 3-kinase catalytic subunit alpha isoform (Homo sapiens), P42336 [I800L]; settings: Compound concentration 1000.0 nM
Chain of Phosphatidylinositol 4,5-bisphosphate 3-kinase catalytic subunit alpha isoform (Homo sapiens), P42336 [I800L] (P42336 whole entry I800L, canonical isoform): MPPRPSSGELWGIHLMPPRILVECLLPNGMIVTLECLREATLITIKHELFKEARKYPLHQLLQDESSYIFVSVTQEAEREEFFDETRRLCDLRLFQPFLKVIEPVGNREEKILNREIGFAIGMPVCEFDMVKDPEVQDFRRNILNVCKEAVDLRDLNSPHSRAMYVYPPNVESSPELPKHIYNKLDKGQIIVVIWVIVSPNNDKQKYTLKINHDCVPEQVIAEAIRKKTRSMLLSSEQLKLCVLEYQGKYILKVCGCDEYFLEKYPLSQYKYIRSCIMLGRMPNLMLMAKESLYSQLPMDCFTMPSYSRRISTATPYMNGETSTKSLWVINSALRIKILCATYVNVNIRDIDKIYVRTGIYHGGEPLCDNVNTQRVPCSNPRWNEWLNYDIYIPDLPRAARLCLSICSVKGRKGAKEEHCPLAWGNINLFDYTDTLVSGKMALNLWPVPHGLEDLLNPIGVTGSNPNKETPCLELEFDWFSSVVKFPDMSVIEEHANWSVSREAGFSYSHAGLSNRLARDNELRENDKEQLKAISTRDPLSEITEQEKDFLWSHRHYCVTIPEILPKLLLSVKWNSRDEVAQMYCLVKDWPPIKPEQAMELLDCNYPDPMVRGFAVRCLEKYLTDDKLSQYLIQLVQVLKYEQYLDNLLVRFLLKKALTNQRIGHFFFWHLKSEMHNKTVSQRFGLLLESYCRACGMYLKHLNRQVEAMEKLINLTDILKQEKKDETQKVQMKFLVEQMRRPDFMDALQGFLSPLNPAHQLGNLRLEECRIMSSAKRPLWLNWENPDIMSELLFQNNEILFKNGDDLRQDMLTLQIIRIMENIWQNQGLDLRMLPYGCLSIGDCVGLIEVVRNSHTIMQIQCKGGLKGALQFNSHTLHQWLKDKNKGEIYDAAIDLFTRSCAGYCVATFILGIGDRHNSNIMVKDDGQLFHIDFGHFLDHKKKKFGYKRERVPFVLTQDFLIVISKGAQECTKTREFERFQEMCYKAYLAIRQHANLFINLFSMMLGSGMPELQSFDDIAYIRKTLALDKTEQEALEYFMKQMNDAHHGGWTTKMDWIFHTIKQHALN

[27] = target: Cyclin-dependent kinase 3 (Homo sapiens) (UniProt Q00526); settings: Compound concentration 1000.0 nM
[28] = target: Mitogen-activated protein kinase kinase kinase 14 (Homo sapiens) (UniProt Q99558); settings: Compound concentration 1000.0 nM
Chain of Mitogen-activated protein kinase kinase kinase 14 (Homo sapiens) (Q99558 whole entry, looked up): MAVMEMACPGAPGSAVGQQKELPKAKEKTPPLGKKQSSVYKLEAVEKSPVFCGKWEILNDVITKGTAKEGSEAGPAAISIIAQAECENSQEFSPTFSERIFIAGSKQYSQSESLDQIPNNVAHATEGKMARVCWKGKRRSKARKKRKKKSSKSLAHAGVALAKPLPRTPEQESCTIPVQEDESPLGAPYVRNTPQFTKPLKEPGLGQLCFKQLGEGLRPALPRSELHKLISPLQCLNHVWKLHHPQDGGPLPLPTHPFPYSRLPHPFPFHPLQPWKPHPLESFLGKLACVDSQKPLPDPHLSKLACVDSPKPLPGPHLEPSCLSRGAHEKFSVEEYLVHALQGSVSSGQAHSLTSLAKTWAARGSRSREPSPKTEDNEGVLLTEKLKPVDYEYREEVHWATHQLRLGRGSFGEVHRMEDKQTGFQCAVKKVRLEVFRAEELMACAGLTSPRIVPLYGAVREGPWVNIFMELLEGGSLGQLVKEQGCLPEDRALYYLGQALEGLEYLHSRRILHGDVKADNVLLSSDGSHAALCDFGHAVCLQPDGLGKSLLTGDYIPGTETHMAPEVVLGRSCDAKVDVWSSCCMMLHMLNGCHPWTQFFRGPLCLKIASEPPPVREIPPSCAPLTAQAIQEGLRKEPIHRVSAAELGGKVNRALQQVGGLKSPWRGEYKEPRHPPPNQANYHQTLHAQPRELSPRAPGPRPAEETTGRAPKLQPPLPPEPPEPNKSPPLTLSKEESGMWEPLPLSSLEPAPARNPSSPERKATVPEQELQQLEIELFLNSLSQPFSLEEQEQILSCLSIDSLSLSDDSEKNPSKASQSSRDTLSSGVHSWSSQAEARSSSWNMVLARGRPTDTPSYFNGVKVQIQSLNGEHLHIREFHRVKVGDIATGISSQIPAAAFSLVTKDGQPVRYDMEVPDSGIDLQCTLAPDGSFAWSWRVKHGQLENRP

[29] = target: Serine/threonine-protein kinase SIK1 (Homo sapiens) (UniProt P57059); settings: Compound concentration 1000.0 nM
[30] = target: Receptor tyrosine-protein kinase erbB-3 (Homo sapiens) (UniProt P21860); settings: Compound concentration 1000.0 nM
[31] = tested on: Receptor-type tyrosine-protein kinase FLT3 (Homo sapiens), P36888 [K663Q]; settings: Compound concentration 1000.0 nM
[32] = target: Serine/threonine-protein kinase TAO1 (Homo sapiens) (UniProt Q7L7X3); settings: Compound concentration 1000.0 nM
[33] = tested on: Receptor-type tyrosine-protein kinase FLT3 (Homo sapiens), P36888 [D835H]; settings: Compound concentration 1000.0 nM
[34] = target: Serine/threonine-protein kinase WNK3 (Homo sapiens) (UniProt Q9BYP7); settings: Compound concentration 1000.0 nM
[35] = target: Leucine-rich repeat serine/threonine-protein kinase 2 (Homo sapiens) (UniProt Q5S007); settings: Compound concentration 1000.0 nM
[36] = tested on: Fibroblast growth factor receptor 3 (Homo sapiens), P22607 [G697C]; settings: Compound concentration 1000.0 nM
[37] = target: Vascular endothelial growth factor receptor 2 (Homo sapiens) (UniProt P35968); settings: Compound concentration 1000.0 nM
[38] = target: Hormonally up-regulated neu tumor-associated kinase (Homo sapiens) (UniProt P57058); settings: Compound concentration 1000.0 nM
[39] = target: Transient receptor potential cation channel subfamily M member 6 (Homo sapiens) (UniProt Q9BX84); settings: Compound concentration 1000.0 nM
[40] = target: Bone morphogenetic protein receptor type-1B (Homo sapiens) (UniProt O00238); settings: Compound concentration 1000.0 nM
[41] = tested on: Phosphatidylinositol 4,5-bisphosphate 3-kinase catalytic subunit alpha isoform (Homo sapiens), P42336 [C420R]; settings: Compound concentration 1000.0 nM
Chain of Phosphatidylinositol 4,5-bisphosphate 3-kinase catalytic subunit alpha isoform (Homo sapiens), P42336 [C420R] (P42336 whole entry C420R, canonical isoform): as the sequence (P42336 whole entry I800L, canonical isoform) above, with C420R, L800I counted along it

[42] = target: Eukaryotic translation initiation factor 2-alpha kinase 1 (Homo sapiens) (UniProt Q9BQI3); settings: Compound concentration 1000.0 nM
[43] = target: GABA-A receptor; anion channel (Rattus norvegicus) (UniProt O09028+P15431+P18506+P18508+P19969+P20236+P23574+P23576+P28471+P28473+P30191+P62813+P63079+P63138+Q91ZM7+Q9ES14); settings: Compound concentration 10.0 uM

N#CC1(c2ccccn2)CCN(Cc2cc(C(=O)N3CCCC3)c(=O)n3ccccc23)CC1
residual activity [1]: 100%
residual activity [2]: 82%
residual activity [3]: 85%
residual activity [4]: 95%
residual activity [5]: 85%
residual activity [6]: 75%
residual activity [7]: 62%
residual activity [8]: 100%
inhibition [9]: 1.36%
residual activity [10]: 100%
residual activity [11]: 95%
residual activity [12]: 90%
residual activity [13]: 100%
residual activity [14]: 92%
residual activity [15]: 100%
residual activity [16]: 90%
residual activity [17]: 100%
residual activity [18]: 100%
residual activity [19]: 92%
residual activity [20]: 94%
residual activity [21]: 100%
residual activity [22]: 76%
residual activity [23]: 72%
residual activity [24]: 90%
residual activity [25]: 79%
residual activity [26]: 72%
residual activity [27]: 79%
residual activity [28]: 100%
residual activity [29]: 100%
residual activity [30]: 93%
residual activity [31]: 30%
residual activity [32]: 100%
residual activity [33]: 87%
residual activity [34]: 94%
residual activity [35]: 100%
residual activity [36]: 98%
residual activity [37]: 92%
residual activity [38]: 79%
residual activity [39]: 80%
residual activity [40]: 95%
residual activity [41]: 87%
residual activity [42]: 83%
inhibition [43]: 23.2%

N#CC1(c2ccccn2)CCN(Cc2cc(C(=O)O)c(=O)n3ccccc23)CC1 [MSD-M1PAM]
residual activity [1]: 93%
residual activity [2]: 58%
residual activity [3]: 100%
residual activity [4]: 100%
residual activity [5]: 97%
residual activity [6]: 82%
residual activity [7]: 56%
residual activity [8]: 72%
inhibition [9]: 6.68%
residual activity [10]: 100%
residual activity [11]: 84%
residual activity [12]: 100%
residual activity [13]: 95%
residual activity [14]: 98%
residual activity [15]: 80%
residual activity [16]: 100%
residual activity [17]: 81%
residual activity [18]: 83%
residual activity [19]: 87%
residual activity [20]: 100%
residual activity [21]: 95%
residual activity [22]: 84%
residual activity [23]: 92%
residual activity [24]: 100%
residual activity [25]: 100%
residual activity [26]: 90%
residual activity [27]: 99%
residual activity [28]: 73%
residual activity [29]: 92%
residual activity [30]: 100%
residual activity [31]: 100%
residual activity [32]: 100%
residual activity [33]: 100%
residual activity [34]: 99%
residual activity [35]: 65%
residual activity [36]: 100%
residual activity [37]: 79%
residual activity [38]: 100%
residual activity [39]: 100%
residual activity [40]: 67%
residual activity [41]: 97%
residual activity [42]: 86%
inhibition [43]: 20.2%
